This passage reports Kd results from BindingDB's records for doi:10.1002/cbic.201402673 (University of Groningen, 2015).

SMILES strings stand for the structures.

The target in the assay is T1, Thiamine transporter ThiT (Lactococcus lactis subsp. cremoris (strain MG1363), UniProt A2RI47).
T1 sequence (A2RI47 whole entry): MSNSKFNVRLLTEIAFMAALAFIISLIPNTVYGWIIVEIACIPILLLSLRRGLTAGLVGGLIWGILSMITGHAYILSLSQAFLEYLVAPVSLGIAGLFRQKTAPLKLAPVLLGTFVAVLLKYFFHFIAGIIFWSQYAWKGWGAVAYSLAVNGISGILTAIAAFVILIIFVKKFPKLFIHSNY
The experiment in a line: Intrinsic-Fluorescence Titration. On the procedure: Purified ThiT was diluted in buffer E to a concentration of ~50 nM in a final volume of 800 µL. The substrates were added in 1 µL steps. Using an excitation wavelength of 280 nm, emission was measured at 350 nm and 25 °C. After each addition of substrate, 10 s were allowed for equilibration and mixing, and the signals were averaged over 15 s.
With `Cc1ncc(Cc2csc(CCO)c2C)c(N)n1` [3-Deazathiamine], binding was put at a Kd of 4.23 nM.
Then `Cc1ncc(Cc2cccc(CCO)c2)c(N)n1` [2-(3-((4-Amino-2-methylpyrimidin-5-yl)methyl)phenyl)ethanol (8)], with 266 nM; and `Cc1ncc(Cc2csc(C=O)c2C)c(N)n1` [4-((4-Amino-2-methylpyrimidin-5-yl)methyl)-3-methylthiophene-2-carbaldehyde (9)], with 7.44 nM; and `Cc1ncc(Cc2cccc(CO)c2)c(N)n1` [(3-((4-Amino-2-methylpyrimidin-5-yl)methyl)phenyl)methanol (6)], with 528 nM.
The same measure for `Cc1ncc(Cc2csc(CO)c2C)c(N)n1` [(4-((4-Amino-2-methylpyrimidin-5-yl)methyl)-3-methylthiophen-2-yl)methanol (7)]: 5.21 nM.
